Assay results as given in patent publication US20100087388A1, “ODCASE INHIBITORS AS ANTI-VIRALS AND ANTIBIOTICS” (priority 2005, published 2010).
pKi: −log10 of the molar value.

Legend:
[1] = biological target: T1, Staphylococcus aureus ODCase (Staphylococcus aureus, UniProt Q6GHN1); test: ODCase enzyme inhibition assay; type: biochemical; conditions: read-out: K1 against Staphylococcus aureus ODCase
T1 construct: made in house; host or cells: E. coli BL21(DE3), pET24a(+)
Description: ODCase gene, pyrF, was obtained from the complete genomes of the respective bacteria through ATCC. The pyrF gene was amplified from the genome of S. aureus M252 using two synthetic primers: Dir 5′-[…] [SEQ ID NO: 1] and Rev 5′-[…] [SEQ ID NO: 2].
The pET expression system was used to express ODCase from pyrF. The cloning strategy can use any generic strategies, herein a double digestion of pET24a(+) expression vector and pyrF separately using EcoRI and HindIII restriction enzyme was used to produce digestion products with sticky ends. […] The digested vector was separated from the restriction enzyme by gel purification by QIAquick Gel Extraction Kit Protocol using microcentrifuge and quantified on 1% agarose gel with 2-log ladder as standard. In addition to quantifying DNA, 1% agarose gel was run with undigested vector to confirm that the vector was digested.
pyrF from the PCR mixture was also double digested in 50 uL solution using the same conditions described above. The separation of the pyrF from restriction enzymes was carried out by QIAquick Gel Extraction Kit Protocol using Microcentrifuge, and the collected gene was quantified on 1% agarose gel. […]

[2] = tested on: human primary blood cells

T1 sequence (Q6GHN1 whole entry): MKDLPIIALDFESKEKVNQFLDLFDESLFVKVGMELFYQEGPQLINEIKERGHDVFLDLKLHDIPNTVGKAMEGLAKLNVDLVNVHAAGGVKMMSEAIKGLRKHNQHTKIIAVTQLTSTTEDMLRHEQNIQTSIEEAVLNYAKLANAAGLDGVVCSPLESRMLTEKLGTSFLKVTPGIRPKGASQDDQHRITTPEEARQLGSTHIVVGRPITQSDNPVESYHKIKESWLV

Compound | pKi [1] | Effect on human primary blood cells (indications of toxicity) [2]
O=c1cc(I)n([C@@H]2O[C@H](COP(=O)(O)O)[C@@H](O)[C@H]2O)c(=O)[nH]1 [Ib, 6-Iodo uridine-5′-O-monophosphate] | > 7.30 | 
O=c1cc(I)n([C@@H]2O[C@H](CO)[C@@H](O)[C@H]2O)c(=O)[nH]1 [Ia, 6-Iodo-uridine] |  | did not inhibit primary cells significantly
